Columns and labels:
Soya plants = assay: Phytotoxicity determination on soya; type: in vivo; conditions: 200 L/ha of 1% w/w emulsion (EC 90% w/w solvent, 10% w/w emulsifier), after 14 days
Procedure: Soya plants grown under standard greenhouse conditions in the growth stage 13 were treated with aqueous emulsions in a spray cabin. The resulting plant spray dosage represented an application rate of 200 L/ha of 1% w/w emulsion, corresponding to the application of 2 L/ha of the emulsifiable concentrate. […] The experimental period lasted 14 days, during which time the Soya plants were given optimum watering, nutrients, and light.
An assessment of 1 to 10% phytotoxicity is the limit of acceptable plant damage by farmers.

[1] = Water solubility of the solvent (method based on CIPAC MT157.1 and OECD 105); type: physicochemical; conditions: solvent in water, visual assessment of undissolved solvent
Procedure: The water solubility of the solvent was determined according to a method based on CIPAC MT157.1 and OECD 105 via the visual assessment of undissolved solvent in water after vigorous mixing and standing. Herein, various amounts of solvent and water were mixed with vigorous shaking in a glass-stoppered graduated cylinder or separating funnel, followed by standing for at least 30 min to enable separation. […] This method can be repeated with various amounts of solvent and water to enable the determination of the water-solubility of the solvent.

| SMILES | phytotoxicity (visual, scale 0% to 100%) (Soya plants) | water solubility [1] |
| --- | --- | --- |
| CCCCC(CC)COC(=O)C(C)O (stereo not shown) [2-Ethyl hexyl lactate, 2-Ethylhexyl Lactate] | 30% |  |
| COc1ccc(C=O)cc1 [4-anisaldehyde] | 0% | 0.20 % w/w |
| CCCCCCCCCC(=O)N(C)C [Dimethyl decanamide, dimethyl decanamide] | 50% |  |
